Measured values from patent US20060128015A1, “Small hepatocyte-rich colonies, process for preparing the colonies, process for maturating the colonies into liver tissue and method of estimating effects of drug by using matured small hepatocyte-rich colonies” (priority 2001, published 2006).
Read-outs that look alike come from different tables or passages of the source.

How the values were obtained:
CYP4A1 = CYP4A1 induction capacity in matured small hepatocyte-rich colonies (Western blot); type: cell-based, rat; conditions: 24 hours, matured hepatocytes = 100%, control (0.5% DMSO) 74.1
CYP2E1 = conditions: 24 hours after addition, matured hepatocytes = 100%, 0 mM gave 74.1
Method: (§1) About 200 to 250/cm^2 of the small hepatocyte colonies prepared in Example 2 were placed on a culture dish (diameter: 60 mm).
(§2) After the culture in a culture medium (1) (DMEM, 10% FBS, 10 mM nicotinamide, 1 mM ascorbic acid 2-phosphate, 10 ng/ml EGF, 10^−7 M dexamethasone, 0.5 μg/ml insulin, penicillin and streptomycin) for 12 to 24 hours, the culture medium was exchanged with a serum-free culture medium (2) (DMEM, 10 mM nicotinamide, 1 mM ascorbic acid 2-phosphate, 10 ng/ml EGF, 10^−7 M dexamethasone, 0.5 μg/ml insulin, penicillin, streptomycin and 1% DMSO). After the culture for additional 10 days while the culture medium was exchanged every other day, Matrigel diluted to 500 μg/ml with the culture medium was placed on the cells. 48 hours after the addition of Matrigel, the culture medium was exchanged, and the culture was continued by using DMSO-free culture medium (2) for 4 days. 6 days after the addition of Matrigel, drugs shown in the following Tables 3 to 6 were added in a concentration shown in the same Tables thereto, respectively. 24 hours after the addition of the drug, the cells were recovered.
(§3) After the proteins were separated with 10% SDS-PAGE, the intended protein was stained on the membrane by Western blot. The intensity of the band on the blot was digitized by a densitometer.
(§4) The primary antibodies used were goat anti-CYP2B 1 antibody (diluted to 1/300), goat anti-CYP3A2 antibody (diluted to 1/300), goat anti-CYP2E1 antibody (diluted to 1/1000) and goat anti-CYP4A1 antibody (diluted to 1/1000) (all bought from Daiichi Kagaku Yakuhin). The secondary antibodies were HRP-conjugated anti-goat/sheep Ig (diluted to 1/5000) bought from DAKO. The chromogenic substrate was Super Signal West Dura (chemiluminescence) purchased from Pierce.
(§5) Tables 3 to 6 show the relative activity of each enzyme as the induction capacity of each drug for the enzyme, wherein the activity of each enzyme in matured hepatocytes is defined as 100%. Pregnenolone was used in the form of a solution containing 0.5% ethanol, and clofibrate was used in the form of a solution containing 0.5% DMSO.

CYP2B1 = CYP2B1 induction capacity in matured small hepatocyte-rich colonies (Western blot); type: cell-based, rat; conditions: 24 hours after addition, matured hepatocytes = 100%, 0 mM gave 30.8
CYP3A2 = CYP3A2 induction capacity in matured small hepatocyte-rich colonies (Western blot); type: cell-based, rat; conditions: 24 hours, matured hepatocytes = 100%, control (0.5% ethanol) 94.9
Method: as §1, §2, §3, §4, §5

CCOC(=O)C(C)(C)Oc1ccc(Cl)cc1 [Clofibrate]
CYP4A1 induction capacity (%) (CYP4A1; 0.1 mM in 0.5% DMSO): 76.5% | CYP4A1 induction capacity (%) (CYP4A1; 0.25 mM in 0.5% DMSO): 82.4% | CYP4A1 induction capacity (%) (CYP4A1; 0.5 mM in 0.5% DMSO): 98.8% | CYP4A1 induction capacity (%) (CYP4A1; 0.75 mM in 0.5% DMSO): 86.4%

CCO [Ethanol]
CYP2E1 induction capacity (%) (CYP2E1; 250 mM): 76.5% | CYP2E1 induction capacity (%) (CYP2E1; 500 mM): 82.4% | CYP2E1 induction capacity (%) (CYP2E1; 750 mM): 98.8% | CYP2E1 induction capacity (%) (CYP2E1; 1000 mM): 86.4%

CCC1(c2ccccc2)C(=O)NC(=O)NC1=O [Phenobarbital]
CYP2B1 induction capacity (%) (CYP2B1; 0.75 mM): 37.4% | CYP2B1 induction capacity (%) (CYP2B1; 1.5 mM): 47.9% | CYP2B1 induction capacity (%) (CYP2B1; 3.0 mM): 46.9% | CYP2B1 induction capacity (%) (CYP2B1; 4.5 mM): 55.0%

CC(=O)[C@H]1CC[C@H]2[C@@H]3CC=C4C[C@@H](O)CC[C@]4(C)[C@H]3CC[C@]12C [Pregnenolone]
CYP3A2 induction capacity (%) (CYP3A2; 0.5 × 10^−3 mM in 0.5% ethanol): 115.5% | CYP3A2 induction capacity (%) (CYP3A2; 1.0 × 10^−3 mM in 0.5% ethanol): 141.0% | CYP3A2 induction capacity (%) (CYP3A2; 2.0 × 10^−3 mM in 0.5% ethanol): 148.1% | CYP3A2 induction capacity (%) (CYP3A2; 5.0 × 10^−3 mM in 0.5% ethanol): 153.2%
